From patent US10758541B2, “Formulations of milciclib and therapeutic combinations of the same for use in the treatment of cancer” (Tiziana Life Sciences PLC, priority 2017, dated 2020)

Legend:
[1] = tested on: Alphafetoprotein (AFP); assay: AFP ELISA assay in MHCC97H cells; assay type: cell-based, human; settings: 1.3 μM, 72 hours, vs vehicle control
Method: (§1) MHCC97H cells were seeded at a density of 500,000 cells/2 mL/well on a 6 well culture plate and incubated overnight at 37° C. in a humidified CO2 incubator. Cells were then treated with 1.3 μM milciclib or vehicle in DMEM/F12+2% FBS for 72 hours. Subsequently, cells were lysed in RIPA buffer, the supernatant was collected and used to perform ELISA assay as per the manufacturer's instructions. In orthotopic HCC mouse model, levels of serum marker alpha-fetoprotein (AFP) were determined on day 0, 6, 12, 18, 24, 30, 36, 42 and 48 using High Range AFP kit as per manufacturer's instructions.

[2] = tested on: HepG2.2.15 cells; assay: Wound healing assay; assay type: cell-based, human; settings: scratched monolayer of HepG2.2.15 cells, 96 hours, vs vehicle control
Method: (§2) Cells were seeded at a density of 500,000 cells/2 mL/well on to a collagen-coated 6-well culture plate and incubated overnight in a humidified CO2 incubator at 37° C. to form a uniform monolayer. The monolayer was then scratched in a straight line with a new 10 μL pipette tip across the center of the well. After scratching, cells were washed with sterile PBS once to remove detached cells. Subsequently, wells were replenished with fresh DMEM/F12 containing 2% FBS and the test article either alone or in combination with milciclib. […] Images were analyzed using SlideBook™ 5 software. The values were expressed as a percentage of migration. See Saxena N K, Sharma D, Ding X, et al. Concomitant activation of the JAK/STAT, PI3K/AKT, and ERK signaling is involved in leptin-mediated promotion of invasion and migration of hepatocellular carcinoma cells. Cancer Res. 2007; 67: 2497-2507.

[3] = tested on: MHCC97L cells; assay: Wound healing assay; assay type: cell-based, human; settings: scratched monolayer of MHCC97L cells, 96 hours, vs vehicle control
Method: as §2

[4] = tested on: MHCC97H cells; assay: EMT transwell invasion assay; assay type: cell-based, human; settings: agent alone, 10 days, P<0.05
Method: (§3) EMT (Epithelial to Mesenchymal Transition) induction employing kit from R&D systems (Cat # CCM017)
(§4) For transwell invasion assay HCC cells were seeded in the top chamber in 6 well transwell plates (Sigma-Aldrich, St. Louis, Mo.) at a density of 100,000 cells/500 μL/well in standard culture media containing 100× StemXVivo® EMT Inducing Media Supplement (R&D systems, Minneapolis, Minn.) and was incubated overnight at 37° C. in humidified CO2 incubator. Next day, EMT inducing media with or without the test articles was added and incubation was continued for 10 days with media changes every 3 days. On the 10th day, the number of cells migrated to the lower chamber was determined using Bio-Rad (Hercules, Calif.) automatic cell counter. Values obtained were expressed as a percentage of invasion and the cell counts of control cells were considered 100%.
(§5) The invasive potential of cancer cells is dependent on losing epithelial characteristics and acquiring a migratory mesenchymal property referred to as Epithelial to Mesenchymal Transition (EMT).

[5] = tested on: MHCC97L cells; assay: EMT transwell invasion assay; assay type: cell-based, human; settings: agent alone, 10 days, P<0.05
Method: as §3, §4, §5

[6] = tested on: MHCC97H human liver cells; assay: Orthotopic tumor induction in athymic nude mice; assay type: in vivo; settings: oral, once daily day 12 to 47; milciclib 30 mg/kg/day, sorafenib 20 mg/kg/day; vs vehicle
Method: Mouse experiments were performed in accordance with the guidelines approved by the Institutional Animal Care and use committee of Washington Biotechnology Inc (Baltimore, Md.) where the studies were conducted. (FIG. 66) Test agents were dissolved in chremophor/ethanol (1:1) to make a 5× stock solution and diluted in water when used. MHCC97H human liver cells (5×106) in PBS were mixed with 20% Matrigel and then inoculated orthotopically into the right flank of female Balb/c nude mice. Seven days after cell inoculation, the mice were randomly allocated to either the treatment group (n=12) or the control group (n=12) based on the levels of AFP. The daily animal inspection was conducted for general appearance and tumor growth. Milciclib (30 mg/Kg), sorafenib (20 mg/Kg), milciclib+sorafenib or the corresponding vehicle was given orally to individual mice once daily from day 12 until day 47. After completion of the treatment at day 48, animals were euthanized and blood, liver tissues and tumor were collected for gene expression and mechanistic assays. Liver tumors developed 100% of animals challenged with orthotopic MHCC97H injection.

[7] = tested on: alpha-fetoprotein (AFP); assay: Serum AFP in orthotopic HCC mouse model; assay type: in vivo, mice; settings: milciclib 30 mg/kg, sorafenib 20 mg/kg, oral, vs vehicle
Method: as §1
Mouse experiments were performed in accordance with the guidelines approved by the Institutional Animal Care and use committee of Washington Biotechnology Inc (Baltimore, Md.) where the studies were conducted. (FIG. 66) Test agents were dissolved in chremophor/ethanol (1:1) to make a 5× stock solution and diluted in water when used. MHCC97H human liver cells (5×106) in PBS were mixed with 20% Matrigel and then inoculated orthotopically into the right flank of female Balb/c nude mice. Seven days after cell inoculation, the mice were randomly allocated to either the treatment group (n=12) or the control group (n=12) based on the levels of AFP. The daily animal inspection was conducted for general appearance and tumor growth. […]

[8] = tested on: p27, p21, p57, p53, cyclin D1, cyclin E2, MKI67, c-Myc, CdC6; assay: Quantitative real-time PCR gene expression in orthotopic HCC tumors; assay type: in vivo; settings: orthotopic HCC mice
Method: Total RNA was extracted using the RNeasy Mini kit according to the manufacturer's instructions (Qiagen, Germantown, Md.). RNA was quantified using Nanodrop Lite (Thermo Scientific, Wilmington, Del.). Complementary DNA (cDNA) synthesis was performed by reverse transcription of total RNA using the High Capacity cDNA Reverse Transcription Kit (Thermo Fisher Scientific, Rockford, Ill.). Real-time quantitative PCR was employed using the LightCycler 480 Instrument II (Roche Diagnostics Corporation, Indianapolis, Ind.) using TaqMan Fast Advanced Master Mix and TaqMan Gene Expression probes for human p27, cyclin E2, cyclin A2, CdC6, MKI67, cyclin D1, p21, p57, c-Myc and p53 (Thermo Fisher Scientific). The expression of target genes was normalized to the housekeeping gene GAPDH in each sample. All samples were run in duplicate and the relative gene expression calculated as 2−ΔCT was expressed as fold increase over control samples.

[9] = tested on: pAKT (Ser473), AKT, c-Myc, Cyclin D1, PTEN; assay: Western blot analysis of tumor tissues; assay type: in vivo, mice; settings: liver samples, vs vehicle treated group
Method: The tumor tissues from a thymic nude mice were weighed and homogenized with RIPA lysis buffer (Sigma-Aldrich, St. Louis, Mo.) and protease inhibitor cocktail (Sigma-Aldrich, St. Louis, Mo.). Tumor lysates were cleared by centrifugation and the protein concentration was determined using Bradford reagent (Sigma-Aldrich, St. Louis, Mo.). Equal amounts of protein (30 μg) were resolved on precast polyacrylamide gels (Thermo Fisher Scientific, Rockford, Ill.) and transferred to nitrocellulose membrane, 0.2 μm pore size (Thermo Fisher Scientific, Rockford, Ill.). The blots were blocked with 5% (w/v) nonfat dry milk for 2 h at room temperature and then probed with primary antibody overnight at 4° C. The primary antibodies were directed against the following proteins: human PTEN, human AKT and phospho-AKT (Ser473), human c-Myc, human CyclinD1 and human β-actin (Cell Signaling Technology, Beverly, Mass.). After three washes, incubation was followed by the reaction with horseradish peroxidase-conjugated secondary antibody for 1 h at room temperature. The immunoreactive bands were visualized using Image Studio 4.0-Western Analysis Ribbon (Li-Cor, Lincoln, Nebr.).

With `CNC(=O)c1nn(C)c2c1C(C)(C)Cc1cnc(Nc3ccc(N4CCN(C)CC4)cc3)nc1-2` [MILCICLIB, N,1,4,4-tetramethyl-8-((4-(4-methylpiperazin-1-yl)phenyl)amino)-4,5-dihydro-1H-pyrazolo[4,3-h]quinazoline-3-carboxamide] the AFP levels [1] was “Appreciably lower”, the cell migration [2] was “reduced cell migration” and the cell migration [3] was “reduced cell migration”. For the same compound, the “cell migration (EMT assay)” value [4] was “statistically significant inhibition”, the “cell migration (EMT assay)” value [5] was “statistically significant inhibition” and the reducing tumor growth [6] was 20%. For the same compound, the “serum AFP levels” value [7] was “Significantly lower”, the “expression of cell proliferation genes such as MKI67, cdc6, c-Myc” value ([8]; oral administration) was “downregulated” and the “expression of cyclins such as cyclin E2 and cyclin D1” value ([8]; oral administration) was “downregulated”. For the same compound, the “expression of tumor suppressors such as p27, p21, p53 and p57” value ([8]; oral treatment) was “upregulated”, the PTEN expression [9] was “upregulation” and the “pAKT, c-Myc and cyclin D1 expression” value [9] was “reduction”.
